Results on 4 compounds are retold here after US12582639B2, “Preventive, relief or therapeutic use of 2,3,5-substituted thiophene compound against gastrointestinal stromal tumor” (PHAROS IBIO CO., LTD, priority 2020, dated 2026).

Experiment [1] deals with GIST-T1 cell line. Briefly: Growth inhibition of gastrointestinal stromal tumor cell line GIST-T1 (Celltiter glo). Type of experiment: cell-based. The conditions noted are these: Homo sapiens, GISTT1; for GI50: GIST-T1, 72 hours. As for the experimental part:
Specifically, 100 μl of the GIST-T1 cell line was added to each well of a 96-well plate at a concentration of 5,000 cells/100 μl. After 24 hours of stabilization, 100 μl of the GIST-T1 cell line was treated with 0.5 μl of each of control compounds and PHI-101 (⅓ serial dilution, 10 points) to a final concentration of up to 50 μM, and cultured at 37° C. under 5% CO2 for 72 hours. As the control compounds, imatinib, dasatinib, sunitinib and ponatinib, which are c-kit inhibitors, were used. After culture, the cells were counted using a Celltiter glo assay kit (Promega), and the 50% growth inhibition values (GI50, μM) of the control compounds and PHI-101 were measured.
A general note: ATP-based viability assays read luminescence as a measure of living cells.

Experiment [2] has as its system c-kit D816V Ba/F3 cell line xenograft mouse model. Briefly: Survival time of c-kit D816V Ba/F3 cell line xenograft mouse model. Format: in vivo. The note with it: oral, daily. The procedure: As mice, 6-8-week-old NOD SCID female mice (18 to 22 g) (GemPharmatech Co., Ltd.) were prepared. Mice were acclimatized for 7 days before use in the experiment, and mice with abnormal health were excluded from the experiment. Mice were bred in a cage (300×180×150 mm) at a 22±3° C. and a relative humidity of 40% to 70% with a 12-hr light/12-hr dark cycle. Mice were allowed access to sterilized dry granular food (Beijing Keaoxieli Feed Co., Ltd., Beijing, China) and water ad libitum for the entire experimental period except for the period specified in the protocol.
50 ml of c-kit D816V mutant Ba/F3 cells suspension cultured in a 75 T flask were placed in a conical tube and centrifuged at 800 rpm for 2 minutes, centrifuged with DPBS (Dulbecco's Phosphate-Buffered Saline, Welgene) at 800 rpm for 2 minutes, washed, and then suspended in RPMI1640 (Welgene) without antibiotics and fetal bovine serum (FBS). Thereafter, the cells were stained with trypan blue and counted with a hemocytometer. […]
Specifically, while the presence or absence of abnormalities in the mouse model of Example 3-1 was monitored daily by checking the skin condition, bleeding and stool status, whether the body weight changed was checked by measuring the mouse weight at intervals of 3 days after the start of oral administration of each drug. […]

A further experiment relates to Parental Ba/F3 cell line. Briefly: Growth inhibition of parental Ba/F3 cell line (Celltiter glo). Format: cell-based. The note with it: Mus musculus, BaF3; Parental Ba/F3, 72 hours.
Experiment [3] relates to GIST-T1 cell line. Briefly: Apoptotic effect, cleaved PARP Western blot in GIST-T1. Format: cell-based, human. The note with it: 0.01, 0.1 and 1 μM, 24 hours. The procedure:
(§1) Specifically, the c-kit D816V mutant Ba/F3 cell line was dispensed at a density of 1×10^6 cells/ml, treated with each of the control compounds and PHI-101 at concentrations of 0.1, 1 and 10 μM, and then cultured for 2 hours. Lysates of the cells were obtained using lysis buffer (50 mM Tris-HCl pH7.5, 1% NP40, 1 mM EDTA, 150 mM NaCl, 5 mM, Na3VO4 and 2.5 mM NaF, and a protease inhibitor cocktail). Equal amounts of the cell lysates were electrophoresed using 8% SDS-PAGE gel at 100 V for 1 hour and 30 minutes, and the separated protein was electrically transferred to nitrocellulose membranes. […] Next, the membranes were washed three times with TBST for 5 minutes each time and treated with a chemiluminescent substrate reagent, and the expression level of the protein was measured by detecting luminescence with an X-ray film in the dark.
A gastrointestinal stromal tumor cell line was treated with PHI-101, and the level of cleaved PARP, an apoptosis marker, was analyzed. […]
Specifically, the apoptotic effect of PHI-101 against the GIST-T1 cell line was analyzed in the same manner as in Example 1-2, except that the GIST-T1 cell line was treated with each of the control compounds at a concentration of 1 μM and PHI-101 at concentrations of 0.01, 0.1 and 1 μM for 24 hours, and that cleaved PARP diluted at 1:3,000 was used as a primary antibody.

Experiment [4] relates to c-kit phosphorylation and downstream signaling (p-STAT3, p-ERK1/2) in c-kit D816V mutant Ba/F3 cell line. Briefly: Inhibition of c-kit phosphorylation and downstream signaling in c-kit D816V Ba/F3 cells (Western blot). The conditions noted are these: 0.1, 1 and 10 μM, 2 hours; controls sunitinib and dasatinib. Format: cell-based. The procedure: The inhibitory activities of the control compound and PHI-101 against c-kit phosphorylation and downstream signaling (p-STAT3, p-ERK1/2) in the c-kit D816V mutant Ba/F3 cell line were measured, and as control compounds, sunitinib and dasatinib were used.
as §1, with “membranes. The membranes were blocked with 5% skim milk at room temperature for 30 minutes, and allowed to react with primary antibodies (diluted 1:5,000), including p-c-kit tyrosine 719 (Y719), p-STAT3 tyrosine 705 (Y705) and p-ERK1/2 threonine 202/tyrosine 204 (T202/Y204) at 4° C. for 16 to 20 hours.” for “membranes.”

The test system of experiment [5] is c-kit phosphorylation and downstream signaling (p-AKT, p-ERK1/2, p-S6) in GIST-T1 cell line. The experiment in a line: Inhibition of c-kit phosphorylation and downstream signaling in GIST-T1 cells (Western blot). Format: cell-based, human. The note with it: 0.01, 0.1 and 1 μM. For orientation: Immunoblotting shows a protein as a band on a membrane.
Experiment [6] relates to c-kit D816V mutant Ba/F3 cell line. The experiment in a line: Cell cycle FACS assay. The conditions noted are these: 1 μM, 24 hours. Format: cell-based. The procedure:
The c-kit D816V mutant Ba/F3 cell line was treated with 1 μM of PHI-101, and then the SubG1/GO-1 population was analyzed by cell cycle FACS assay.
Specifically, the c-kit D816V mutant Ba/F3 cell line was adjusted to a concentration of 1×10^6 cells/ml and treated with each of PHI-101 and the control compound sunitinib at a concentration of 1 μM for 24 hours. Thereafter, the medium was removed, and the c-kit D816V mutant Ba/F3 cell line was fixed in 70% ethanol at 4° C. for 24 hours, and then incubated in a PBS buffer solution containing 40 μg/ml of propidium iodide (PI) and 100 μg/ml of RNase for 30 minutes to completely stain the total DNA. Cell cycle analysis of the stained cells was performed using a flow cytometer (FACS-C6, BD). The proportion of cells in G0/G1 phase, S phase and G2/M phase was measured, and based on the measurement results, the SubG1/GO-1 population was determined.
(In general: Flow cytometry measures light scatter and fluorescence of single cells or particles in a stream.)

Experiment [7] has the same test system. Briefly: Apoptotic effect, Annexin V-PI FACS analysis. The conditions noted are these: 24 hours. Type of experiment: cell-based. As for the experimental part: Specifically, the c-kit D816V mutant Ba/F3 cell line was adjusted to a concentration of 1×10^6 cells/ml and treated with each of PHI-101 at concentrations of 0.1, 1 and 10 μM and the control compound sunitinib at concentrations of 1 and 10 μM for 24 hours. Thereafter, the medium was removed and the cells were washed once with 1 ml PBS. The PBS was removed by centrifugation at 1,000 rpm for 5 minutes. The cells were dissolved in 100 μl of PBS containing Ca^2+ and Mg^2+ and allowed to react with 5 μl of Annexin V for 20 minutes. After completion of the reaction, 400 μl of PBS containing Ca^2+ and Mg^2+ was added, and 5 μl of propidium iodide (PI) was added, and then the degree of apoptotic cell death was analyzed by FACS (fluorescence activated cell sorter) assay using a flow cytometer (FACS-C6, BD).

The test system of experiment [8] is c-kit D816V Ba/F3 cell line. Briefly: Growth inhibition of c-kit D816V mutant Ba/F3 cell line (Celltiter glo). The conditions noted are these: for GI50: Mus musculus, BaF3, cKIT D816V Ba/F3, 72 hours. Type of experiment: cell-based. The procedure: Specifically, 100 μl of a Ba/F3 cell line with a c-kit D816V mutation (FIG. 1) was added to each well of a 96-well plate at a concentration of 10,000 cells/100 μl. After 4 hours, 100 μl of the Ba/F3 cell line was treated with 0.5 μl of each of control compounds and PHI-101 (10-point 1:3 serial dilutions) to a final concentration of up to 50 μM, and cultured at 37° C. under 5% CO2 for 72 hours. As the control compounds, imatinib and sunitinib which are c-kit inhibitors were used. After culture, the cells were counted using a Celltiter glo assay kit (Promega), and the 50% growth inhibition values (GI50, μM) of the control compounds and PHI-101 were measured.

One may read the GI50 as the concentration giving 50% growth inhibition. Consider `Cc1nc(Nc2ncc(C(=O)Nc3c(C)cccc3Cl)s2)cc(N2CCN(CCO)CC2)n1` [Dasatinib, dasatinib], for which halving of growth with GIST-T1 cell line [1] (GI50) required 73 nM.
The term IC50 denotes the midpoint of a concentration-inhibition curve. For the compound `NC(=O)Nc1cc(C#Cc2cccc(F)c2)sc1C(=O)N[C@H]1CCCNC1` [PHI-101, (S)-5-((3-fluorophenyl)ethynyl)-N-(piperidin-3-yl)-3-ureidothiophene-2-carboxamide], the “prolongation of survival time compared to vehicle-administered group” value in [2] (7 mg/kg) turned out to be 3 days. For the same compound, in experiment [2] (80 mg/kg), the “survival time compared to vehicle-administered group” value is reported as “doubled”. Besides, the GI50 came to 36 nM in the experiment with GIST-T1 cell line [1], 5010 nM in the experiment with Parental Ba/F3 cell line and 912 nM in [8]. For the same compound, in the experiment with GIST-T1 cell line [1] (GIST-T1 proliferation, read-out: IC50 value in GIST-T1 cells), the IC50 came to 36 nM. Further, in the experiment with GIST-T1 cell line [3], the “level of cleaved PARP (apoptosis marker)” value is recorded as “increased in a manner dependent on the concentration of PHI-101”. Also, the “inhibitory activity against p-c-kit (Y719) phosphorylation” value in [4] is reported as “higher inhibitory activity against p-c-kit (Y719) phosphorylation than the control compounds”. In experiment [5], the “c-kit phosphorylation and downstream signaling” value is “decreased c-kit phosphorylation and downstream signaling in a concentration-dependent manner”. The SubG1/GO-1 population entry in experiment [6] is given as “increased”. In addition, the induction of apoptosis result in [7] (0.1 μM) was “strongly induced apoptosis”. For the same compound, in experiment [7] (0.1, 1 and 10 μM), the “apoptosis, concentration dependence” value is given as “apoptosis increased in a concentration-dependent manner”. Moreover, the “inhibitory activity against the c-kit D816V Ba/F3 mutant cell line compared with control compounds” value in experiment [8] (controls imatinib and sunitinib) is on record as “higher inhibitory activity against the c-kit D816V Ba/F3 mutant cell line than the control compounds”. In experiment [8] (from GI50 values of Table 1), the “selectivity for c-kit D816V Ba/F3 mutant cell line versus parental Ba/F3 cell line” value is “higher selectivity for the c-kit D816V Ba/F3 mutant cell line than for the parental Ba/F3 cell line”.
`CCN(CC)CCNC(=O)c1c(C)[nH]c(/C=C2\C(=O)Nc3ccc(F)cc32)c1C` [Sunitinib, sunitinib]: the values for the GI50 (in the experiment on GIST-T1 cell line [1]; in the experiment on Parental Ba/F3 cell line; in [8]) were 26 nM, 13300 nM and 2650 nM, respectively.
Taken in the same sequence, the figures for `Cc1ccc(NC(=O)c2ccc(CN3CCN(C)CC3)cc2)cc1Nc1nccc(-c2cccnc2)n1` [Imatinib, imatinib] were 64 nM, 12700 nM and 11500 nM.
